Reference: patent publication US8299021B2, “Macrocyclic inhibitors of hepatitis C virus replication” (InterMune, Inc., priority 2005, dated 2012)
pEC50, pIC50: −log10 of the molar value.

Target: T1, NS3-NS4 protease (full-length NS3/NS4A-2) (Hepatitis C virus genotype 1a, UniProt P27958)
T1 construct: Recombinant E. coli or Baculovirus full-length NS3 was diluted to 3.33 μM with assay buffer; made in house; host or cells: E. coli or baculovirus (insect cells)
Assay: NS3-NS4 protease assay / NS3 inhibition assay (RETS1 substrate, fluorescence kinetic read)
Format: biochemical
Conditions: Table 22; read-out: NS3-NS4 IC50
Protocol: NS3 complex formation with NS4A-2.
The appropriate amount of NS4A-2 to 8.3 mM in assay buffer was added to equal the volume of NS3 in step 2.1.1 (conversion factor—3.8 mg/272 μL assay buffer). The material was transferred to an eppendorf tube and place in water bath in 4° C. refrigerator.
After equilibration to 4° C., equal volumes of NS3 and NS4A-2 solutions were combined in an eppendorf tube, mix gently with a manual pipettor, and incubate mixture for 15 minutes in the 4° C. water bath.
After 15 minutes at 4° C., the NS3/NS4A-2 eppendorf tube was removed and place it in a room temperature water bath for 10 minutes. NS3/NS4A-2 was alliquoted at appropriate volumes and store at −80° C. (E. coli NS3 run at 2 nM in assay, aliquot at 25 μL. BV NS3 run at 3 nM in assay, aliquot at 30 μL).
Sample compounds were dissolved to 10 mM in DMSO then diluted to 2.5 mM (1:4) in DMSO.
The E. coli. […] Using the manual multichannel pipettor, careful not to introduce bubbles into the plate, add 50 μL assay buffer to wells A01-H01 of a black Costar 96-well polypropylene storage plate.
Using the manual multichannel pipettor, careful not to introduce bubbles into the plate, add 50 μL of diluted NS3/NS4A-2 from step 2.2.6 to wells A02-H12 of plate in step 2.2.7. Using the manual multichannel pipettor, careful not to introduce bubbles into the plate, transfer 25 μL of the wells in drug dilution plate in step 2.2.5 to corresponding wells in assay plate in step 2.2.8. Change tips on multichannel pipettor for each row of compounds transferred. Using the manual multichannel pipettor, careful not to introduce bubbles into the plate, mix the wells from the assay plate in step 2.2.9 by aspirating and dispensing 35 μL of the 75 μL in each well five times. Change tips on multichannel pipettor for each row of wells mixed. Cover plate with a polystyrene plate lid and pre-incubate the plate from step 2.2.10 containing NS3 protease and sample compounds 10 minutes at room temperature. While plate from step 2.2.11 is pre-incubating, dilute RETS1 substrate in a 15 mL polypropylene centrifuge tube.
After the plate in step is done pre-incubating, and using the manual multichannel, add 25 μL of substrate to all wells on the plate. Quickly mix the plate as in step 2.2.10, mixing 65 μL of the 100 μL in the wells.
Read the plate in kinetic mode on the Molecular Devices SpectraMax
IC50s are determined using a four parameter curve fit equation, and converted to Ki's using the following Km's:
where Ki=IC50/(1+[S]/Km))

T1 sequence (P27958 1027-1657): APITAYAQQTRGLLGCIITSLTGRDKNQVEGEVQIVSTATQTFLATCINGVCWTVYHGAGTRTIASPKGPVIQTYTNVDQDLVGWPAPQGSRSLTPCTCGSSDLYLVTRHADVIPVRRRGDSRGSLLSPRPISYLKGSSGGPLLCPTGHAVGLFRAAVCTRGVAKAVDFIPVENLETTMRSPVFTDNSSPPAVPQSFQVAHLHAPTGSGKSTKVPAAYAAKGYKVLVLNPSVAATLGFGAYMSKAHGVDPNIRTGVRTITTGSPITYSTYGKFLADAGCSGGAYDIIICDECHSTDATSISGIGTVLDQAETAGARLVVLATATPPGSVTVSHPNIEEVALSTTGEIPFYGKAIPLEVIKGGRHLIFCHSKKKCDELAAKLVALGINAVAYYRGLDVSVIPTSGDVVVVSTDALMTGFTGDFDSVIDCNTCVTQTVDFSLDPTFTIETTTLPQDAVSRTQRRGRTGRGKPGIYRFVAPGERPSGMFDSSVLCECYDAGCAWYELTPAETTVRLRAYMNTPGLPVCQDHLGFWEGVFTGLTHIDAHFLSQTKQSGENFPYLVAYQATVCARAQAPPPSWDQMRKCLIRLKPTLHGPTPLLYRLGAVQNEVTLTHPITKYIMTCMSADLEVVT

| Molecule | pIC50 |
| --- | --- |
| CC(C)(C)OC(=O)N[C@H]1CCCCC/C=C\[C@@H]2C[C@@]2(C(=O)Nc2ccccc2Cl)NC(=O)[C@@H]2CCCN2C1=O [Compound 2309] | > 6.00 |
| CC(C)(C)OC(=O)N[C@H]1CCCCC/C=C\[C@@H]2C[C@@]2(C(=O)NCc2cccc(C(=O)O)c2)NC(=O)[C@@H]2CCCN2C1=O [Compound 2310] | > 6.00 |
| C[C@@H](NC(=O)[C@@]12C[C@H]1/C=C\CCCCC[C@H](NC(=O)OC(C)(C)C)C(=O)N1CCC[C@H]1C(=O)N2)c1ccccc1 [Compound 2311] | > 6.00 |
| COc1cccc(NC(=O)[C@@]23C[C@H]2/C=C\CCCCC[C@H](NC(=O)OC(C)(C)C)C(=O)N2CCC[C@H]2C(=O)N3)c1 [Compound 2312] | > 6.00 |

Same assay, conditions: Table 25; read-out: NS3-NS4 IC50

| Molecule | pIC50 |
| --- | --- |
| Cc1ccc([S@+]([O-])NC(=O)[C@@]23C[C@H]2/C=C\CCCCC[C@H](NC(=O)OC(C)(C)C)C(=O)N2C[C@H](OC(=O)N4Cc5ccccc5C4)C[C@H]2C(=O)N3)cc1 [Compound 2602] | > 5.00 |
| Cc1ccc([S+]([O-])NC(=O)C23CC2C=CCCCCCC(NC(=O)OC(C)(C)C)C(=O)N2CC(OC(=O)N4Cc5ccccc5C4)CC2C(=O)N3)cc1 (centres unmarked) [Compound 2603] | > 5.00 |

Same assay, conditions: read-out: NS3-NS4 IC50

| Molecule | pIC50 |
| --- | --- |
| Cyclopentyl (1aR,9S,19aR)-15-(3-chlorophenoxy)-10,18-dioxo-19a-(phenylsulfonylcarbamoyl)-1a,2,3,4,5,6,7,8,9,10,12,17,17a,18,19,19a-hexadecahydro-1H-2,5-diaza-bicyclo[13.1.0]hexadec-1(15)-eno[5,4-b]isoquinolin-9-ylcarbamate [Compound 2010] | > 5.00 |

Tested on: HCV sub-genomic replicon GS4.3 (HuH-7 hepatoma cells)
Assay: Quantitation by ELISA of neomycin phosphotransferase II (NPTII) in the HCV sub-genomic replicon, GS4.3
Format: cell-based
Conditions: Hepatitis C virus, Huh-7, 72 h, read-out: Replicon EC50
Description: Quantitation by ELISA of the Selectable Marker Protein, Neomycin Phosphotransferase II (NPTII) in the HCV Sub-Genomic Replicon, GS4.3
The HCV sub-genomic replicon (1377/NS3-3′, accession No. AJ242652), stably maintained in HuH-7 hepatoma cells, was created by Lohmann et al. Science 285: 110-113 (1999). The replicon-containing cell culture, designated GS4.3, was obtained from Dr. Christoph Seeger of the Institute for Cancer Research, Fox Chase Cancer Center, Philadelphia, Pa.
GS4.3 cells were maintained at 37° C., 5% CO2, in DMEM (Gibco 11965-092) supplemented with L-glutamine 200 mM (100×) (Gibco25030-081), non-essential amino acids (NEAA)(Biowhittaker 13-114E), heat-inactivated (HI) Fetal Bovine Serum(FBS)(Hyclone SH3007.03) and […] geneticin (G418)(Gibco 10131-035). Cells were sub-divided 1:3 or 4 every 2-3 days.
24 h prior to the assay, GS4.3 cells were collected, counted, and plated in 96-well plates (Costar 3585) at 7500 cells/well in 100 μl standard maintenance medium (above) and incubated in the conditions above. To initiate the assay, culture medium was removed, cells were washed once with PBS (Gibco 10010-023) and 90 μl Assay Medium (DMEM, L-glutamine, NEAA, 10% HI FBS, no G418) was added. Inhibitors were made as a 10× stock in Assay Medium, (3-fold dilutions from 10 μM to […] final concentration, final DMSO concentration 1%), 10 μl were added to duplicate wells, plates were rocked to mix, and incubated as above for 72 h.
An NPTII Elisa kit was obtained from AGDIA, Inc. (Compound direct ELISA test system for Neomycin Phosphotransferase II, PSP 73000/4800). Manufacturer's instructions were followed, with some modifications. 10×PEB-1 lysis buffer was made up to include 500 μM PMSF (Sigma P7626, 50 mM stock in isopropanol). After 72 h incubation, cells were washed once with PBS and 150 μlPEB-1 with PMSF was added per well. Plates were agitated vigorously for 15 minutes, room temperature, then frozen at −70° C. Plates were thawed, lysates were mixed thoroughly, and 100 μl were applied to an NPTII Elisa plate. A standard curve was made. Lysate from DMSO-treated control cells was pooled, serially diluted with PEB-1 with PMSF, and applied to duplicate wells of the ELISA plate, in a range of initial lysate amount of 150 ul-2.5 ul. In addition, 100 μl buffer alone was applied in duplicate as a blank. Plates were sealed and gently agitated at room temperature for 2 h. Following capture incubation, the plates were washed 5×300 μlwith PBS-T (0.5% Tween-20, PBS-T was supplied in the ELISA kit). For detection, a 1× dilution of enzyme conjugate diluent MRS-2 (5×) was made in PBS-T, into which 1:100 dilutions of enzyme conjugates A and B were added, as per instructions. Plates were resealed, and incubated with agitation, covered, room temperature, for 2 h. The washing was then repeated and 100 μlof room temperature TMB substrate was added. After approximately 30 minutes incubation (room temperature, agitation, covered), the reaction was stopped with 50 μl 3M sulfuric acid. Plates were read at 450 nm on a Molecular Devices Versamax plate reader.
Inhibitor effect was expressed as a percentage of DMSO-treated control signal, and inhibition curves were calculated using a 4-parameter equation: y=A+4B-A)/(1+((C/x)^13))), where C is half-maximal activity or EC50.

| Molecule | pEC50 |
| --- | --- |
| CC(C)S(=O)(=O)NC(=O)[C@@]12C[C@H]1/C=C\CCCCC[C@H](NC(=O)OC1CCCC1)C(=O)N1C[C@H](OC(=O)N3CCc4ccccc4C3)C[C@H]1C(=O)N2 [Compound 118] | > 7.00 |
| CS(=O)(=O)NC(=O)[C@@]12C[C@H]1/C=C\CCCCC[C@H](NC(=O)OC1CCCC1)C(=O)N1C[C@H](OC(=O)N3CCc4ccccc4C3)C[C@H]1C(=O)N2 [Compound 119] | > 6.00 |
| COc1ccc(S(=O)(=O)NC(=O)[C@@]23C[C@H]2/C=C\CCCCC[C@H](NC(=O)OC2CCCC2)C(=O)N2C[C@H](OC(=O)N4CCc5ccccc5C4)C[C@H]2C(=O)N3)cc1 [Compound 120] | > 7.00 |
| CN(C)c1ccc(S(=O)(=O)NC(=O)[C@@]23C[C@H]2/C=C\CCCCC[C@H](NC(=O)OC2CCCC2)C(=O)N2C[C@H](OC(=O)N4CCc5ccccc5C4)C[C@H]2C(=O)N3)cc1 [Compound 183] | > 7.00 |
| Cc1noc(C)c1S(=O)(=O)NC(=O)[C@@]12C[C@H]1/C=C\CCCCC[C@H](NC(=O)OC1CCCC1)C(=O)N1C[C@H](OC(=O)N3CCc4ccccc4C3)C[C@H]1C(=O)N2 [Compound 187] | > 6.00 |
| COc1cccc(S(=O)(=O)NC(=O)[C@@]23C[C@H]2/C=C\CCCCC[C@H](NC(=O)OC2CCCC2)C(=O)N2C[C@H](OC(=O)N4CCc5ccccc5C4)C[C@H]2C(=O)N3)c1 [Compound 188] | > 7.00 |
| O=C1N[C@]2(C(=O)NS(=O)(=O)C3CC3)C[C@H]2/C=C\CCCCC[C@H](Nc2c(N3C4CCC3CC4)c(=O)c2=O)C(=O)N2C[C@H](OC(=O)N3Cc4cccc(F)c4C3)C[C@@H]12 [Compound 199] | > 5.00 |
| N[C@H]1CCCCC/C=C\[C@@H]2C[C@@]2(C(=O)NS(=O)(=O)Nc2ccc(Cl)cc2)NC(=O)[C@@H]2C[C@@H](OC(=O)N3Cc4ccccc4C3)CN2C1=O [Compound 203] | < 5.00 |

Same assay, conditions: Hepatitis C virus, Huh-7; GS4.3 cells, 72 h; read-out: Replicon EC50

| Molecule | pEC50 |
| --- | --- |
| CC(C)(C)C(O)C(=O)NC1CCCCCC=CC2CC2(C(=O)NS(=O)(=O)C2CC2)NC(=O)C2CC(OC(=O)N3Cc4cccc(F)c4C3)CN2C1=O (single isomer, unassigned) [Compound 248] | > 6.00 |
| CC(C)(C)OC(=O)N[C@H]1CCCCC/C=C\[C@@H]2C[C@@]2(C(=O)O)NC(=O)C2C[C@@H](OC(=O)N3Cc4c(Cl)ccc(Cl)c4C3)CN2C1=O (some centres unmarked) [Compound 144] | > 5.00 |
| CC(C)(C)OC(=O)N[C@H]1CCCCC/C=C\[C@@H]2C[C@@]2(C(=O)NS(=O)(=O)C2CC2)NC(=O)C2C[C@@H](OC(=O)N3Cc4c(Cl)ccc(Cl)c4C3)CN2C1=O (some centres unmarked) [Compound 145] | > 7.00 |
| O=C(N[C@H]1CCCCC/C=C\[C@@H]2C[C@@]2(C(=O)O)NC(=O)C2C[C@@H](OC(=O)N3Cc4ccncc4C3)CN2C1=O)OC1CCCC1 (some centres unmarked) [Compound 146] | < 5.00 |
| C[C@H](NC(=O)O[C@@H]1CC2C(=O)N[C@]3(C(=O)NS(=O)(=O)C4CC4)C[C@H]3/C=C\CCCCC[C@H](NC(=O)OC(C)(C)C)C(=O)N2C1)c1ccc(F)cn1 (some centres unmarked) [Compound 149] | < 5.00 |
| O=C(N[C@H]1CCCCC/C=C\[C@@H]2C[C@@]2(C(=O)NS(=O)(=O)C2CC2)NC(=O)C2C[C@@H](OC(=O)N3Cc4ccncc4C3)CN2C1=O)OC1CCCC1 (some centres unmarked) [Compound 155] | > 6.00 |
| N[C@H]1CCCCC/C=C\[C@@H]2C[C@@]2(C(=O)NS(=O)(=O)C2CC2)NC(=O)C2C[C@@H](OC(=O)N3Cc4c(Cl)ccc(Cl)c4C3)CN2C1=O (some centres unmarked) [Compound 156] | > 6.00 |
| Cc1ccccc1S(=O)(=O)NC(=O)[C@@]12C[C@H]1/C=C\CCCCC[C@H](NC(=O)OC(C)(C)C)C(=O)N1C[C@H](OC(=O)N3Cc4cccc(F)c4C3)CC1C(=O)N2 (some centres unmarked) [Compound 157] | > 7.00 |
| O=C(N[C@@H]1CCCCC/C=C\[C@@H]2C[C@]2(C(=O)NS(=O)(=O)N2CCC(F)(F)C2)NC(=O)C2C[C@H](OC(=O)N3Cc4ccccc4C3)CN2C1=O)OC1CCCC1 (some centres unmarked) [Compound 227] | > 7.00 |
| O=C1N[C@]2(C(=O)NS(=O)(=O)C3CC3)C[C@H]2/C=C\CCCCC[C@H](NC(=S)NC2CCCC2)C(=O)N2CC(OC(=O)N3Cc4cccc(F)c4C3)C[C@@H]12 (some centres unmarked) [Compound 240] | > 6.00 |
| O=C1N[C@]2(C(=O)NS(=O)(=O)C3CC3)C[C@H]2/C=C\CCCCC[C@H](Nc2c(N3CCC3)c(=O)c2=O)C(=O)N2CC(OC(=O)N3CCc4ccccc4C3)C[C@@H]12 (some centres unmarked) [Compound 242] | > 5.00 |
